Values quoted from earlier work, collected in patent US20150139938A1, “Methods and Compositions for Improving Pial Collateral Circulation and Treating Blood Clotting Disorders” (Ohio State Innovation Foundation, priority 2012, published 2015).

Test system: stroke-induced lesion in the brain of spontaneously hypertensive rats
Details: orally supplemented, earlier work of the inventors

Structure (SMILES): CC(C)=CCC/C(C)=C/CC/C(C)=C/CC[C@]1(C)CCc2c(C)c(O)c(C)c(C)c2O1 [αTCT, α-tocotrienol]
- protection against stroke-induced lesion in the brain: protects
